IC50 data for 75 compounds are collected here from PubChem BioAssay AID493141 (Sanford-Burnham Center for Chemical Genomics, 2011).

pIC50: −log10 of the molar value. “And” between values parts separate entries of the source, which are not always exact repeats. Equal values may be shown once. The source made the active and inactive calls. No rule for the calls is given here. Bounds are passed on as bounds.

In the assay the target is Alkaline phosphatase, tissue-nonspecific isozyme (Homo sapiens) (UniProt P05186). Description: human TNAP enzyme inhibitors, SAR follow-up, selectivity assay for human IAP inhibitor project, biochemical (AID 493141). Particulars: isolated enzyme, CDP-Star luminescence, 30 min.
Sequence of Alkaline phosphatase, tissue-nonspecific isozyme (Homo sapiens) (P05186 whole entry, looked up): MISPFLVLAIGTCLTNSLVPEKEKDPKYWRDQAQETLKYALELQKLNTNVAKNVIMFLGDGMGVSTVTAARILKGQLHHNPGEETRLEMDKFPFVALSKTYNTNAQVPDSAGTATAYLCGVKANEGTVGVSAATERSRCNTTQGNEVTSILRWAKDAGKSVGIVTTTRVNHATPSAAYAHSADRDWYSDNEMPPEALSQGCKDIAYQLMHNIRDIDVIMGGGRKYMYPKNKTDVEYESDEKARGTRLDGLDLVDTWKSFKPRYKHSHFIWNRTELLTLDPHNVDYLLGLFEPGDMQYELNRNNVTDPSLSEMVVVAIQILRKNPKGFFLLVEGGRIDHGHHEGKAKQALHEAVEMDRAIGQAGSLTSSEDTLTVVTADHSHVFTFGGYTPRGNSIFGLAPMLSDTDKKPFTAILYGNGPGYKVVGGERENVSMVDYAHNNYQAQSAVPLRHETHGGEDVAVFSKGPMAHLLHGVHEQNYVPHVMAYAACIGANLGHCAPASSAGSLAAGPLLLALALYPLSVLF

Broadly, the IC50 is the midpoint of a concentration-inhibition curve. Consider `COc1ccc(/C=N/N=C2/NC(=O)C(CC(=O)O)S2)cc1OC` (stereo not given), for which the IC50 is > 100 µM (inactive).

The term pIC50 denotes −log10 of the IC50, conventionally taken in molar units. Consider `Oc1ccc(Nc2nc(-c3ccc(O)c(O)c3)cs2)cc1`, for which the pIC50 was 4.75.

As to `O=[N+]([O-])c1ccc(NC(=S)NCCC(c2ccccc2)c2ccccc2)cc1`, the IC50 was > 100 µM (inactive).

Regarding `Cc1cccc(Nc2nc(-c3ccc(O)c(O)c3)cs2)c1`, the pIC50 was 4.22.

As to `FC(F)(F)c1cccc(NC(=S)NCCC(c2ccccc2)c2ccccc2)c1`, the IC50 is > 100 µM (inactive).

Regarding `Cc1cccc(NC(=S)NN=Cc2ccc3c(c2)OCO3)c1`, the IC50 is > 100 µM (inactive).

As for `CC(=NNC(=S)Nc1ccccc1)c1ccc2c(c1)OCO2`, the IC50 was > 100 µM (inactive).

For `COC(=O)/C=C1/S/C(=N/NC(=O)c2ccc(OC)cc2)NC1=O`, the IC50 was > 100 µM (inactive).

`COC(=O)/C=C1/S/C(=N/NC(=O)c2ccccc2)NC1=O`: the IC50 was > 100 µM (inactive).

Turning to `COC(=O)/C=C1/S/C(=N/N=Cc2ccc(N(C)C)cc2)NC1=O`, the IC50 is > 100 µM (inactive).

On to `CCOc1cc(C=NNC(=S)NC2CCCCC2)ccc1O`, for which the IC50 was > 100 µM (inactive).

For the compound `COc1ccc(-c2csc(Nc3cccc4ccccc34)n2)cc1F`, the IC50 is > 100 µM (inactive).

On to `COC(=O)/C=C1/S/C(=N/NC(=O)c2ccccc2C)NC1=O`, for which the IC50 was > 100 µM (inactive).

On to `COc1cc([N+](=O)[O-])ccc1NC(=S)NNC(=O)c1ccc2c(c1)OCO2`, for which the IC50 was > 100 µM (inactive).

Consider `CC(C)(C)c1ccc(/C=N/N=C2\NC(=O)C(CC(=O)O)S2)cc1` (stereo not given), for which the IC50 was > 100 µM (inactive).

As to `Cc1cccc(Nc2nc(-c3ccc(O)c(C(N)=O)c3)cs2)c1`, the IC50 is > 100 µM (inactive).

Take `O=[N+]([O-])c1ccccc1NC(=S)NN=Cc1ccc(O)c(O)c1`: the pIC50 was 4.37.

As to `COC(=O)/C=C1/S/C(=N/NC(=O)c2ccccc2OC)NC1=O`, the IC50 is > 100 µM (inactive).

`COc1ccc(/C=N/N=C2\NC(=O)C(CC(=O)O)S2)c(OC)c1` (stereo not given): the IC50 was > 100 µM (inactive).

With `O=S(=O)(c1ccc(NC(=S)N/N=C/c2ccc(O)c(O)c2)cc1)N1CCOCC1`, the pIC50 is 4.85.

With `COc1ccc(Cl)cc1Nc1nc(-c2ccc(O)c(O)c2)cs1`, the IC50 was > 100 µM (inactive) and 83.7 µM.

Consider `Cc1ccc(Nc2nc(-c3ccc(O)cc3O)cs2)cc1C`, for which the IC50 was > 100 µM (inactive).

In the case of `O=C(O)CC1S/C(=N/N=C/c2ccco2)NC1=O` (stereo not given), the IC50 was > 100 µM (inactive).

As for `COc1ccc(-c2csc(Nc3cccc4ccccc34)n2)cc1`, the IC50 is > 100 µM (inactive).

`Cc1ccc(Nc2nc(-c3ccc(O)c(C(N)=O)c3)cs2)cc1`: the IC50 is > 100 µM (inactive).

As for `Cc1cc(=O)oc2cc(NC(=S)NCCC(c3ccccc3)c3ccccc3)ccc12`, the IC50 is > 100 µM (inactive).

For the compound `COc1ccc(C=Nn2c(=S)n(C)c3ccccc32)cc1OC`, the IC50 is > 100 µM (inactive).

Consider `COC(=O)/C=C1\S/C(=N/N=C/c2ccc(Cl)cc2)NC1=O`, for which the IC50 was > 100 µM (inactive).

For `Cc1ccc(-c2ccc(/C=N/N=C3\NC(=O)C(CC(=O)O)S3)o2)c([N+](=O)[O-])c1` (stereo not given), the IC50 is > 100 µM (inactive).

As for `Cc1cccc(C)c1NC(=S)N/N=C/c1ccc(O)c(O)c1O`, the IC50 was > 100 µM (inactive).

As for `Cc1ccc(Cl)cc1Nc1nc(-c2ccc(O)c(O)c2)cs1`, the pIC50 is 4.29.

Take `S=C(NCCC(c1ccccc1)c1ccccc1)Nc1ccc(Cl)cc1Cl`: the IC50 is > 100 µM (inactive).

Take `Cc1cccc2sc(NNC(=O)c3ccc4c(c3)OCCO4)nc12`: the IC50 was > 100 µM (inactive).

As for `COc1cc(/C=N/N=C2\NC(=O)C(CC(=O)O)S2)cc(OC)c1OC` (stereo not given), the IC50 is > 100 µM (inactive).

Take `Oc1ccc(-c2csc(Nc3cccc4ccccc34)n2)cc1O`: the pIC50 was 4.65 and 4.55.

With `Cc1c(Cl)cccc1Nc1nc(-c2ccc(O)c(O)c2)cs1`, the IC50 is 41 µM and > 100 µM (inactive).

With `COC(=O)C/C=N/N=C1\NC(=O)/C(=C/C(=O)O)S1`, the IC50 is > 100 µM (inactive).

As for `COC(=O)/C=C1\SC(N=Nc2c(O)[nH]c3ccccc23)=NC1=O`, the IC50 was > 100 µM (inactive).

`CN(C)S(=O)(=O)c1cccc(NC(=S)NN=Cc2ccc(O)c(O)c2O)c1`: the IC50 was > 100 µM (inactive).

With `CCOc1ccc(Nc2nc(-c3ccc(O)c(O)c3)cs2)cc1`, the IC50 is > 100 µM (inactive).

For `O=[N+]([O-])c1ccccc1NC(=S)N/N=C/c1ccc(O)c(O)c1O`, the negative logarithm of the IC50 (pIC50) was 4.06.

Turning to `COc1cc(C=NNC(=S)Nc2cccc(C(=O)O)c2)ccc1O`, the IC50 is > 100 µM (inactive).

For `COC(=O)/C=C1/S/C(=N/NC(=O)c2ccc(Cl)cc2Cl)NC1=O`, the IC50 was > 100 µM (inactive).

For `COc1ccc(NC(=S)NCCC(c2ccccc2)c2ccccc2)cc1`, the IC50 was > 100 µM (inactive).

For the compound `COc1cc([N+](=O)[O-])ccc1NC(=S)NCCC(c1ccccc1)c1ccccc1`, the IC50 was > 100 µM (inactive).

As for `Cc1ccc(Nc2nc(-c3ccc(O)c(O)c3)cs2)cc1`, the IC50 was > 100 µM (inactive).

For the compound `CCOc1cc(C=N/N=C2/NC(=O)C(CC(=O)O)S2)ccc1OCc1ccccc1Cl` (stereo not given), the IC50 was > 100 µM (inactive).

Take `COc1cc(/C=N/N=C2/SCC(=O)N2c2ccc(O)cc2)ccc1O`: the IC50 was > 100 µM (inactive).

As for `CCOc1cc(/C=N/N=C2\NC(=O)C(CC(=O)O)S2)ccc1O` (stereo not given), the IC50 is > 100 µM (inactive).

As to `Cc1ccc(Nc2nc(-c3ccc(O)cc3O)cs2)cc1F`, the IC50 is > 100 µM (inactive).

Turning to `Cc1cc(C)cc(Nc2nc(-c3ccc(O)cc3O)cs2)c1`, the IC50 is > 100 µM (inactive).

As to `N#CCCn1cc(/C=N/N=C2/NC(=O)C(CC(=O)O)S2)c(-c2ccc(F)cc2)n1` (stereo not given), the IC50 was > 100 µM (inactive).

As to `CCN(CC)S(=O)(=O)c1ccc(-c2csc(=Nc3cccc4ccccc34)n2C)cc1`, the IC50 was > 100 µM (inactive).

For `COc1ccc(C=NN=C2SC(CC(=O)O)C(=O)N2c2ccc(O)cc2)cc1` (stereo not given), the IC50 was > 100 µM (inactive).

In the case of `Cc1ccc(C)c(Nc2nc(-c3ccc(O)cc3O)cs2)c1`, the IC50 is > 100 µM (inactive).

For the compound `Cc1ccc2nc(NNC(=O)c3ccc4c(c3)OCCO4)sc2c1`, the IC50 is > 100 µM (inactive).

For `COc1cc(C(=O)NNC(=S)Nc2ccc(S(N)(=O)=O)cc2)cc(OC)c1OC`, the IC50 is > 100 µM (inactive).

Regarding `Oc1ccc(-c2csc(Nc3ccc(F)cc3)n2)cc1O`, the pIC50 was 4.26.

`Cc1ccc(Nc2nc(-c3ccc(O)c(O)c3)cs2)cc1F`: the pIC50 is 4.10.

Regarding `COC(=O)/C=C1\S/C(=N/N=C/CC(=O)OC)NC1=O`, the IC50 is > 100 µM (inactive).

Consider `COc1cc(C=NN=C2SC(CC(=O)O)C(=O)N2c2ccc(O)cc2)ccc1O` (stereo not given), for which the IC50 was > 100 µM (inactive).

In the case of `NS(=O)(=O)c1ccc(Nc2nc(-c3ccc(O)cc3O)cs2)cc1`, the pIC50 is 4.22.

Turning to `Cn1c(=S)n(N=Cc2ccc3c(c2)OCO3)c2ccccc21`, the IC50 was > 100 µM (inactive).

With `COc1ccc(C=NNC(=S)Nc2ccccc2[N+](=O)[O-])cc1O`, the IC50 was > 100 µM (inactive).

Consider `COc1cc(C=NNC(=S)Nc2cccc(S(=O)(=O)N(C)C)c2)cc(OC)c1O`, for which the IC50 was > 100 µM (inactive).

Regarding `CCc1ccccc1Nc1nc(-c2ccc(O)c(O)c2)cs1`, the pIC50 is 4.52 and 4.67.

Consider `Oc1ccc(-c2csc(Nc3ccccc3)n2)c(O)c1`, for which the IC50 was > 100 µM (inactive).

In the case of `O=S(=O)(Nc1ncccn1)c1ccc(NC(=S)NCCC(c2ccccc2)c2ccccc2)cc1`, the IC50 was > 100 µM (inactive).

On to `Cc1ccc2sc(NNC(=O)c3ccc4c(c3)OCCO4)nc2c1C`, for which the IC50 was > 100 µM (inactive).

As for `Cc1cccc(NC(=S)NNC(=O)c2ccc3c(c2)OCO3)c1`, the IC50 was > 100 µM (inactive).

In the case of `COc1cccc(Nc2nc(-c3ccc(O)cc3)cs2)c1`, the IC50 is > 100 µM (inactive).

Consider `Cc1ccc(Nc2nc(-c3ccc(O)cc3O)cs2)cc1`, for which the IC50 was > 100 µM (inactive).

`O=S(=O)(c1ccc(NC(=S)N/N=C/c2ccc(O)c(O)c2O)cc1)N1CCOCC1`: the IC50 is > 100 µM (inactive).

Regarding `NS(=O)(=O)c1ccc(Nc2nc(-c3ccc(O)c(O)c3)cs2)cc1`, the pIC50 is 5.20.

As for `COc1cc(C=NNC(=S)Nc2cccc(S(=O)(=O)N(C)C)c2)ccc1O`, the IC50 is > 100 µM (inactive).
